Experimental data: ChEMBL document CHEMBL1201862, “PubChem BioAssay data set” (2004)
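48-hour exposure; five concentrations; linearly interpolated endpoints. GI50 is the concentration that inhibits growth by half.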 The source made the active and inactive calls. Cut-off read from the data, not from the text of the source: active = GI50 up to about 1.1 µM and inactive = higher.

What was measured:
Test in all cases: NCI tumour cell line growth inhibition, 48 h
[1] = system: BT-549
[2] = system: DMS-114
[3] = system: XF498
[4] = system: M19-MEL
[5] = system: SNB-78
[6] = system: HOP-18
[7] = system: DLD-1
[8] = system: DMS-273
[9] = system: RXF 631

COc1ccc2c(c1)c1nn(CCN(C)C)c3ccc4c(=O)n(CCN(C)C)c(=O)n2c4c13
GI50 [1]: 0.946 µM (active)

CCN(CC)CCCNc1ccc2ncn3c4ccc(O)cc4c(=O)c1c23
GI50 [2]: 3.37 µM (inactive) | GI50 [3]: 0.239 µM (active) | GI50 [4]: 5.83 µM (inactive) | GI50 [5]: 8.65 µM (inactive) | GI50 [6]: 18.6 µM (inactive) | GI50 [7]: 1.24 µM (inactive) | GI50 [8]: 0.553 µM (active)

CCCCCC(=O)Nc1[nH]nnc1C#N
GI50 [1]: > 100 µM (inactive)

CC(=O)O[C@]1(C)OC(=O)[C@@H](CC(C)C)N1[N+](=O)[O-]
GI50 [2]: > 100 µM (inactive) | GI50 [3]: < 0.01 µM (active) | GI50 [4]: > 100 µM (inactive) | GI50 [5]: > 100 µM (inactive) | GI50 [6]: > 100 µM (inactive) | GI50 [7]: > 100 µM (inactive) | GI50 [8]: > 100 µM (inactive)

CC1(C)OC(=O)C(=C2CC(c3ccccc3)c3ccccc32)C(=O)O1 (stereo not drawn)
GI50 [2]: > 100 µM (inactive) | GI50 [4]: > 100 µM (inactive) | GI50 [5]: > 100 µM (inactive) | GI50 [6]: > 100 µM (inactive) | GI50 [7]: > 100 µM (inactive) | GI50 [9]: > 100 µM (inactive)

CCOC(=O)N[C@H]1CCc2cc(OC)c(OC)c(OC)c2-c2ccc(SC)c(=O)cc21
GI50 [1]: < 0.01 µM (active) | GI50 [3]: < 0.01 µM (active) | GI50 [5]: < 0.01 µM (active) | GI50 [7]: < 0.01 µM (active) | GI50 [8]: < 0.01 µM (active)

O=C(Nc1ccccc1)Nn1c(-c2cccs2)nc2ccc(I)cc2c1=O
GI50 [1]: 10.5 µM (inactive)

CCOc1ccc(/N=C\c2cc(OC)c(OC)c(OC)c2)cc1
GI50 [2]: > 100 µM (inactive) | GI50 [3]: > 100 µM (inactive) | GI50 [4]: > 100 µM (inactive) | GI50 [5]: > 100 µM (inactive) | GI50 [6]: > 100 µM (inactive) | GI50 [7]: > 100 µM (inactive) | GI50 [8]: > 100 µM (inactive)

COc1ccc2nc3ccccc3c(NCCCN(C)CCCl)c2c1
GI50 [2]: 0.311 µM (active) | GI50 [1]: 1.22 µM (inactive) | GI50 [3]: 0.212 µM (active) | GI50 [4]: 0.353 µM (active) | GI50 [5]: 0.156 µM (active) | GI50 [7]: 0.233 µM (active) | GI50 [9]: 0.23 µM (active) | GI50 [8]: 0.153 µM (active)

O=C1C[C@@H](Sc2ccccc2)C2(OCCO2)C2ON3CCCC[C@H]3[C@H]12 (stereo partly drawn)
GI50 [1]: 5.81 µM (inactive)

NC(=O)c1nnsc1N/N=C/c1ccc([N+](=O)[O-])cc1
GI50 [1]: 19.7 µM (inactive)

[O-][S+]1Nc2cccc(C(F)(F)F)c2S1 (stereo not drawn)
GI50 [2]: 20.1 µM (inactive) | GI50 [3]: 21.1 µM (inactive) | GI50 [4]: 66.1 µM (inactive) | GI50 [5]: 31.2 µM (inactive) | GI50 [6]: 72.4 µM (inactive) | GI50 [7]: 34.4 µM (inactive) | GI50 [8]: 25.1 µM (inactive)

COC(=O)/C=C1/OC(c2ccc(C)cc2C)=CC1=O
GI50 [1]: 16.3 µM (inactive)

Cn1c(-c2ccc(C=O)o2)ccc1-c1ccc(C=O)o1
GI50 [1]: 55.8 µM (inactive)

CCOP(=O)(OCC)C(NC(=O)C(C(F)(F)F)C(F)(F)F)c1ccccc1 (stereo not drawn)
GI50 [1]: > 10 µM (inactive)

COC(=O)CSC(=S)Nc1nnc(NC(=S)SCOC(C)=O)n1C(=S)SCC(=O)OC
GI50 [1]: > 100 µM (inactive)

COC(=O)c1ccccc1N1C(=O)Cc2ccccc2C1=O
GI50 [2]: > 100 µM (inactive) | GI50 [4]: > 100 µM (inactive) | GI50 [5]: > 100 µM (inactive) | GI50 [8]: > 100 µM (inactive)

Cc1cc(S(=O)(=O)n2ccnc2O)c(SCCCN(C)C)cc1Cl
GI50 [1]: > 100 µM (inactive)

CC1=C(/C(C)=N/NC(=O)C(N)=O)Sc2ccccc2N1
GI50 [2]: > 100 µM (inactive) | GI50 [3]: > 100 µM (inactive) | GI50 [4]: > 100 µM (inactive) | GI50 [5]: > 100 µM (inactive) | GI50 [6]: > 100 µM (inactive) | GI50 [7]: > 100 µM (inactive) | GI50 [8]: > 100 µM (inactive)

CC(=O)N1N=C(c2ccccc2Nc2ccccc2C2=NN(C(C)=O)C(c3ccccc3)O2)OC1c1ccccc1 (stereo not drawn)
GI50 [1]: 87.5 µM (inactive)

COc1nc(NC2OC(COC(C)=O)C(OC(C)=O)C(OC(C)=O)C2OC(C)=O)c(/N=C/C=N/c2c(NC3OC(COC(C)=O)C(OC(C)=O)C(OC(C)=O)C3OC(C)=O)nc(OC)n(C)c2=O)c(=O)n1C (stereo not drawn)
GI50 [2]: > 100 µM (inactive) | GI50 [1]: > 100 µM (inactive) | GI50 [3]: 44.2 µM (inactive) | GI50 [4]: > 100 µM (inactive) | GI50 [6]: > 100 µM (inactive) | GI50 [7]: > 100 µM (inactive)

COc1ccc(C2S/C(=C\c3cccc([N+](=O)[O-])c3)C(=O)N2NC(=O)Cc2ccccc2)cc1 (stereo not drawn)
GI50 [2]: > 100 µM (inactive) | GI50 [4]: > 100 µM (inactive) | GI50 [6]: > 100 µM (inactive) | GI50 [7]: > 100 µM (inactive) | GI50 [8]: > 100 µM (inactive)

COc1ccc(C(=O)C(C(=O)C(=O)Nc2nccs2)c2ccc(OC)cc2)cc1 (stereo not drawn)
GI50 [2]: > 100 µM (inactive) | GI50 [3]: > 100 µM (inactive) | GI50 [5]: > 100 µM (inactive) | GI50 [6]: > 100 µM (inactive) | GI50 [7]: > 100 µM (inactive) | GI50 [8]: > 100 µM (inactive)

CCOC(=O)c1cc2nc3ccccc3c(=O)n2c2ccccc12
GI50 [1]: > 10 µM (inactive)

NC1=NNC2(C(N)=N1)c1ccccc1-c1ccccc12
GI50 [1]: > 10 µM (inactive)

CC1=C(C(=O)Nc2cc(F)c(F)cc2F)C(c2ccc3c(c2)OCO3)C(C(=O)Nc2cc(F)c(F)cc2F)=C(C)N1
GI50 [2]: 17.7 µM (inactive) | GI50 [3]: 6.34 µM (inactive) | GI50 [4]: 20.7 µM (inactive) | GI50 [5]: 17.2 µM (inactive) | GI50 [7]: 18.9 µM (inactive)
